US7998940B2, “Aptamers to von Willebrand factor and their use as thrombotic disease therapeutics” (Archemix Corp., priority 2004, dated 2011)
Where two headings read alike, the source gives them in different places. Oligonucleotides are written 5' to 3', each unit as a sugar letter and its base; * is a phosphorothioate linkage, no mark a phosphodiester; rarer units and linkages stand in square brackets, end groups in braces. Plain capitals give the bases only. [invdT] = inverted (3'-3') thymidine; d = 2'-deoxy (DNA); r = 2'-OH (RNA); f = 2'-fluoro

Tests used:
[1] = system: rabbit vWF A1 domain (SEQ ID NO 6); experiment: dot blot KD determination, rabbit vWF A1 domain; type: binding
Chain of rabbit vWF A1 domain (SEQ ID NO 6) (as listed by the source): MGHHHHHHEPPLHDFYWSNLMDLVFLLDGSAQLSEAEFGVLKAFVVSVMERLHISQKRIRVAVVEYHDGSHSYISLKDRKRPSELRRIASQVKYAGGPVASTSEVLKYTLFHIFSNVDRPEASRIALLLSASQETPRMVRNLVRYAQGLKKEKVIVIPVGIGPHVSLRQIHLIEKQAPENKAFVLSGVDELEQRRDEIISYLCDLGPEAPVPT
Method: A 12 point protein titration was used in the dot blot assay (300 nM, 100 nM, 30 nM, 10 nM, 3 nM, 1 nM, 300 pM, 100 pM, 30 pM, 10 pM, 3 pM, 0 pM) in 1×DPBS plus 0.1 mg/mL BSA at room temperature for 30 minutes.

[2] = system: full length human vWF binding to lyophilized platelets; experiment: Full length human von Willebrand Factor platelet binding assay (FACS); type: cell-based; conditions: for IC50 / Inhibition of full length hVWF binding in FACS assay, IC50 range: 5 nM full length human vWF, lyophilized platelets, botrocetin; for Inhibition of full length hVWF binding in FACS assay, IC50 range: both bounds in nM
In short: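 Aptamer titrations (0.1–1000 nM) pre-incubated with 5 nM full-length human vWF, then added to lyophilized platelets plus botrocetin for 15 min at 37 °C in PBS/0.5% BSA. Bound vWF detected by anti-vWF then FITC secondary antibody via flow cytometry MFI; % inhibition versus no-aptamer binding fitted for IC50.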

[3] = system: full length human vWF (SEQ ID NO 7); experiment: dot blot KD determination and extent of binding, full length human vWF; conditions: for Kd: read-out: Full length human vWF KD;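 for all read-outs here: dot blot binding of aptamers to full length human vWF across a protein titration, incubated 30 minutes at room temperature in 1x DPBS with BSA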
Method: Based on this initial screen, KDs were determined for 3 of the vWF dependent binding sequences using the dot blot assay. […] A 12 point protein titration was used in the dot blot assay (300 nM, 100 nM, 30 nM, 10 nM, 3 nM, 1 nM, 300 pM, 100 pM, 30 pM, 10 pM, 3 pM, 0 pM) in 1×DPBS plus 0.1 mg/mL BSA at room temperature for 30 minutes.
An 8 point protein titration was used in the dot blot binding assay (100n M, 30 nM, 10 nM, 3 nM, 1 nM, 300 pM, 100 pM, 0 pM)) in 1× Dulbecco's PBS containing 0.1 BSA (final volume of 50 uL) for 30 minutes at room temperature.

[4] = system: botrocetin induced platelet aggregation; experiment: Inhibition of botrocetin induced platelet aggregation (BIPA) in human PRP; type: cell-based; conditions: for ≦200 nM aptamer gives >90% blocking in BIPA at 6 minutes: botrocetin induced platelet aggregation
Method: In platelet rich plasma isolated from fresh human blood, botrocetin induces platelet aggregation via vWF. Platelet aggregate formation can be measured optically as an increase in % light transmittance on a Chronolog Model 490-4D Aggregometer because aggregation of platelets clarifies the plasma. Aptamers of the invention were analyzed for their ability to inhibit botrocetin induced platelet aggregation (“BIPA”) in human blood. An aptamer of the invention was considered to be active if it could prevent aggregate formation for six minutes post botrocetin addition.
In order to determine the activity of aptamers on live human platelets, BIPA assays were done using freshly prepared platelet rich plasma. Blood was obtained from healthy human donors who had not taken NSAIDS for at least five days. […] Collected blood was pooled into 15 mL conical tubes and was spun at 200 g for 20 minutes. The turbid, yellow layer of platelet rich plasma (“PRP”) was withdrawn from the tubes, pooled, and set aside at room temperature. The remaining blood was spun at 2500 g for ten minutes. The clarified layer of plasma, known as platelet poor plasma (“PPP”), was withdrawn and set aside at room temperature. PRP was aliquoted into cuvettes containing stir bars at a volume of 470 uL. A sample of 500 uL of PPP was aliquoted into a cuvette and placed in the PPP reference cell of the platelet aggregometer. Samples of PRP were prewarmed at 37 degrees C. in the platelet aggregometer for 3-5 minutes before being used in BIPA assays. First, the concentration of botrocetin needed to induce platelet aggregation for each individual donor was determined by titration. This concentration of botrocetin was used for the remainder of the experiment. Next, aptamer was assayed by adding titrations of aptamer (zero, 1 nM to 1000 nM) to prewarmed PRP for one minute, followed by addition of botrocetin. With platelet aggregation, an increase in amplitude of light transmission is seen (FIG. 8). The concentration at which platelet aggregation is blocked at 90% or greater after 6 minutes is reported in the final column of Table 26.

[5] = system: rabbit vWF domain A1 binding to lyophilized platelets; experiment: Rabbit von Willebrand Factor domain A1 platelet binding assay (FACS); type: cell-based; conditions: for IC50: 4 nM rabbit A1 vWF, lyophilized platelets, botrocetin
Chain of rabbit vWF domain A1 binding to lyophilized platelets (as listed by the source): as above
Method: Botrocetin induces the binding of the A1 domain of vWF to platelets, as well as the full length protein. It was determined by the inventors that 6-Histidine-tagged rabbit A1 domain vWF purified protein could be induced to bind to human lyophilized platelets with botrocetin. Rabbit A1 binding to platelets is measured with an anti-poly-His antibody followed by incubation with a phycoerythrin conjugated secondary antibody. The degree of binding can be quantified by flow cytometric analysis. The ability of aptamers to block the binding of rabbit A1 to human fixed platelets was correlated with decreased fluorescence signal.
The ability of aptamers of the invention to block rabbit vWF domain A1 binding to lyophilized platelets was also assessed by flow cytometric analysis. Titrations of aptamers (zero, 0.1 nM to 1000 nM) were preincubated briefly with 4 nM of rabbit A1 vWF in FACS buffer (PBS plus 0.5% bovine serum albumin) at room temperature in a volume of 50 uL. Another 50 uL containing 5 uL of lyophilized platelets plus 1 uL of 0.1 U/uL of botrocetin in FACS buffer was added to aptamer/vWF. This reaction was allowed to proceed for 15 minutes at 37 degrees C. after which 200 uL of FACS buffer was added. Platelets were collected by a 6 minute spin at 1470 RCF and the supernatant was discarded. The pellets were resuspended in 100 uL of FACS buffer containing a 1:200 dilution of anti-Penta-HIS-biotin conjugate antibody and were incubated at room temperature for 30 minutes. After the dilution with 200 uL of FACS buffer, the platelets were spun at 1470 RCF for 6 minutes, and the supernatant was discarded. The pellets were resuspended in a 1:100 solution of anti-IgG-PE antibody and were incubated in the dark for 30 minutes at room temperature. The entire 100 uL was diluted into 200 uL of FACS buffer and analyzed immediately by flow cytometric analysis in the FACSCAN. Contaminating debris was eliminated from the analysis by drawing a gate around the population of single and aggregated platelets and collecting data from 10000 events. Median fluorescent intensity (“MedFI”) readings (which are generally equivalent to the MFI readings, described in Example 3a above, for comparative purposes) were quantified for each sample analyzed by flow cytometry. Background MedFI was subtracted from all data points. Percent inhibition was reported by calculating the percent value of binding of […] to platelets in the presence of aptamer at a given concentration relative to binding in the absence of any aptamer (see FIG. 7). IC50 values were determined by fitting the percent inhibition of vWF binding to platelets as a function of aptamer concentration to the equation: % inhibition=% inhibitionmax/(1+IC50/aptamer conc.)

[6] = biological target: T1, human vWF A1 domain (SEQ ID NO 5) (Homo sapiens, UniProt P04275, T1381A); experiment: dot blot KD determination, human vWF A1 domain
T1 sequence (P04275 with tags, fused parts or gaps T1381A): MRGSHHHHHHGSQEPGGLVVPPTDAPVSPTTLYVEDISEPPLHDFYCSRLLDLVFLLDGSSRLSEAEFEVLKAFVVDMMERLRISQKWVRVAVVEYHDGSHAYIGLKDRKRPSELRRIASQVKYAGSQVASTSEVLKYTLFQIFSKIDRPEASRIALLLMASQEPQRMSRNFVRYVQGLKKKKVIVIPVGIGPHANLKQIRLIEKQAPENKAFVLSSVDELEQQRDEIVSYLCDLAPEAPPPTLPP
Method: For KD determination, aptamers transcripts were purified on 10% denaturing polyacrylamide gels, 5′ end labeled with γ-^32P ATP.
For KD determination, aptamers were purified on denaturing polyacrylamide gels and 5′-end labeled with γ-^32P ATP. A 6 point protein titration of human vWF A1 domain (SEQ ID NO 5) was used in the dot blot assay (333 nM, 100 nM, 33 nM, 10 nM, 3 nM, 0 nM) in 1×DPBS plus 0.1 mg/mL BSA at room temperature for 30 minutes. KD values were calculated by fitting the equation y=(max/(1+K/protein))+yint using KaleidaGraph (KaleidaGraph v. 3.51, Synergy Software).
KD values were calculated by fitting the equation y=(max/(1+K/protein))+yint using KaleidaGraph (KaleidaGraph v. 3.51, Synergy Software).
All minimer sequences were transcribed, gel-purified on 15% denaturing polyacrylamide gels, 5-^32 end-labeled with γ^32P ATP, and then desalted using two Centri-Spin 10 columns (Princeton Separations Cat. #CS-101, Adelphia, N.J.). For KD determination, minimer transcripts were tested for direct binding to full length human vWF (SEQ ID NO 7), human vWF A1 domain (SEQ ID NO 5), and rabbit vWF A1 domain (SEQ ID NO 6) using an 8 point protein titration from 0-300 nM (3 fold dilutions) in 1× Dulbecco's PBS containing 0.1 mg/mL BSA (in a final volume of 50 uL) for 30 minutes at room temperature and then applied to a nitrocellulose and nylon filter sandwich in a dot blot apparatus (Schleicher and Schuell, Keene, N.H.). KD values were calculated by fitting the equation y=(max/(1+K/protein))+yint using KaleidaGraph (KaleidaGraph v. 3.51, Synergy Software).
All minimer DNA sequences were chemically synthesized, 5-^32P end-labeled with γ-^32P ATP, and then desalted using two Centri-Spin 10 columns (Princeton Separations, Cat. #CS-101, Adelphia, N.J.). […] KD values were calculated by fitting the equation y=(max/(1+K/protein))+yint using KaleidaGraph (KaleidaGraph v. 3.51, Synergy Software).

[7] = system: rabbit vWF A1 domain (SEQ ID NO 6); experiment: 3-point dot blot screen, rabbit vWF A1 domain; type: binding; conditions: rRfY aptamers; 100 nM rabbit vWF A1 domain; ratio of fraction bound with target to without
In short: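 Rabbit vWF A1 domain binding was screened by dot blot using three conditions: no target protein, human vWF, and rabbit vWF A1 domain at 100 nM (20 nM in the screen run twice). Radiolabeled aptamer bound to nitrocellulose was quantified, and results are expressed as the ratio of bound fraction with protein to bound fraction without protein.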

[8] = biological target: T1, human vWF A1 domain (SEQ ID NO 5); experiment: 3-point dot blot screen, human vWF A1 domain; type: binding; conditions: rRfY aptamers; 100 nM human vWF A1 domain; ratio of fraction bound with target to fraction bound without target
In short: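 Values are ratios of aptamer fraction retained on nitrocellulose with 100 nM vWF A1 domain (human or rabbit) versus a no-protein control. Unique clones from rounds 9 and 12 pools were transcribed, desalted and 5'-32P labeled before this three-point dot blot screen.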

[9] = rRdY minimers, 8 point titration 0-300 nM
[10] = read-out: Inhibition of full length hVWF binding in FACS assay, Average IC50
[11] = DNA 2 minimers, 9 point protein titration
[12] = units in the cell: lower bound pM, upper bound nM, read-out: Inhibition of full length hVWF binding in FACS assay, IC50 range
[13] = read-out: Inhibition of rabbit VWF A1 domain binding in FACS assay, Average IC50
[14] = units in the cell: lower bound pM, upper bound nM, read-out: Inhibition of rabbit VWF A1 domain binding in FACS assay, IC50 range
[15] = read-out: human A1 KD, rRfY aptamers, 8 point titration of human vWF A1 domain

Molecule: GGGACGGGGTGGGTAGACGGCGGGTATGTCCC (rGrGrGrAdCrGrGrGrGdTrGrGrGdTrArGrAdCrGrGdCrGrGrGdTrAdTrGdTdCdCdC) [SEQ ID NO 183, minimized rRdY aptamer]
- Kd [1, 9]: 14 ± 7 nM
- IC50 [2, 10]: 26500 pM
- Kd [3, 9]: 10 ± 5 nM

Molecule: GGCGTGCAGTGCCT-[PEG]-AGGCCGTGCGG-[PEG]-CCGTCACGCC-3T (DNA GGCGTGCAGTGCCTAGGCCGTGCGGCCGTCACGCCT; chemistry not fully specified) [ARC1031, minimized DNA aptamer]
- Rabbit vWF A1 domain KD [1, 11]: No binding
- Inhibition of full length hVWF binding in FACS assay, IC50 range [2]: no activity
- Full length human vWF KD [3, 11]: No binding

Molecule: dGCGTGCAGTGCCT-[PEG]-AGGCCGTGCGGTGCCTCCGTCACGCC-3T (DNA GCGTGCAGTGCCTAGGCCGTGCGGTGCCTCCGTCACGCCT; chemistry not fully specified) [ARC1028, minimized DNA aptamer]
- Kd [1, 11]: 3.8 nM
- ≦200 nM aptamer gives >90% blocking in BIPA at 6 minutes [4]: yes
- IC50 [2, 10]: 1200 pM
- IC50 [2, 12]: 473 to 2700 pM
- Kd [3, 11]: 1.1 nM
- IC50 [5, 13]: 1500 pM
- IC50 [5, 14]: 526 to 2700 pM

Molecule: GGCGTGCAGTGCCTATTCTAGGCCGTGCGGTGCCTCCGTCACGCC-3T (DNA, [invdT] at 3' end, backbone not given here) [ARC 1027, minimized DNA aptamer]
- Kd [1, 11]: 4.6 nM
- ≦200 nM aptamer gives >90% blocking in BIPA at 6 minutes [4]: yes
- IC50 [2, 10]: 1500 pM
- IC50 [2, 12]: 208 to 4200 pM
- Kd [3, 11]: 0.8 nM
- IC50 [5, 13]: 2000 pM
- IC50 [5, 14]: 462 to 4200 pM

Molecule: GGACCACCCUCGCAACGAGAGUUGUGCCGCUGGUCC (rGrGrAfCfCrAfCfCfCfUfCrGfCrArAfCrGrArGrArGfUfUrGfUrGfCfCrGfCfUrGrGfUfCfC) [SEQ ID NO 174, minimized rRfY aptamer]
- ≦200 nM aptamer gives >90% blocking in BIPA at 6 minutes [4]: yes
- IC50 [2, 10]: 6600 pM
- IC50 [5, 13]: 6800 pM

Molecule: GGCCACACGACATTGGCGGGCGAGAGCCACGCATGGCC (rGrGdCdCrAdCrAdCrGrAdCrAdTdTrGrGdCrGrGrGdCrGrArGrArGdCdCrAdCrGdCrAdTrGrGdCdC) [SEQ ID NO 198]
- Kd [1, 9]: 11 ± 2 nM
- IC50 [2, 10]: 20600 pM
- Kd [3, 9]: 3 ± 0.6 nM
- IC50 [5, 13]: 12600 pM
- Kd ([6]; read-out: Human vWF A1 domain KD, rRdY minimers, 8 point titration 0-300 nM): 5 ± 2 nM

Molecule: GGCGTGCAGTGCC-[PEG]-GGCCGTGCGGTGCCTCCGTCACGCC-3T (DNA GGCGTGCAGTGCCGGCCGTGCGGTGCCTCCGTCACGCCT; chemistry not fully specified) [ARC1029, minimized DNA aptamer]
- Kd [1, 11]: 6.5 ± 1.5 nM
- ≦200 nM aptamer gives >90% blocking in BIPA at 6 minutes [4]: yes
- inhibition of botrocetin induced platelet aggregation ([4]; in words, human PRP): inhibiting botrocetin induced platelet aggregation
- IC50 [2, 10]: 609 pM
- IC50 [2, 12]: 333 to 1100 pM
- inhibition of binding of human vWF to lyophilized human platelets ([2]; in words, FACS, FIG. 7): inhibits binding
- Kd [3, 11]: 1.4 ± 0.2 nM
- IC50 [5, 13]: 754 pM
- inhibition of binding of rabbit vWF A1 domain to lyophilized human platelets ([5]; in words, FACS, FIG. 7): inhibits binding

Molecule: GGAGCCACACGACATTGGCGCGAGAGCGCATGGCTCC (chemistry not given here) [SEQ ID NO 201, minimized rRdY aptamer]
- ≦200 nM aptamer gives >90% blocking in BIPA at 6 minutes [4]: no activity
- IC50 [2, 10]: 150000 pM

Molecule: CCAGCGGAATGAGAATGCTGATGGATTGCTCAGGTCTGCTGG (DNA, backbone not given here) [SEQ ID NO 204]
- Rabbit vWF A1 domain KD ([1]; DNA 1 minimers): No binding
- Human vWF A1 domain KD ([6]; DNA 1 minimers, competition dot blot, 10 nM protein): No binding

Molecule: GGCGTGCAGTGCCTATTCTAGGCCGTGCGG-[PEG]-CCGTCACGCC-3T (DNA GGCGTGCAGTGCCTATTCTAGGCCGTGCGGCCGTCACGCCT; chemistry not fully specified) [ARC1030, minimized DNA aptamer]
- Rabbit vWF A1 domain KD [1, 11]: No binding
- Inhibition of full length hVWF binding in FACS assay, IC50 range [2]: no activity
- Full length human vWF KD [3, 11]: No binding

B1: AMX201.B1: rRfY aptamer clone (nucleic acid)
chain: rGrGrArGfCrGfCrAfCfUfCrArGfCfCrAfCrArGrArGfCfCfCfUrGrArGfUrGfUrAfUrGrAfUfCrGfCfCfUrArGrAfUfCfUrAfUfCrGrAfUrGfCfUfUfUfUfUfCrGrAfCfCfUfCfUfCfUrGfCfUrArGfC
- ≦200 nM aptamer gives >90% blocking in BIPA at 6 minutes [4]: yes
- Inhibition of full length hVWF binding in FACS assay, IC50 range [2]: no activity
- Kd [6, 15]: 19 nM

B2: AMX201.H3: rRfY aptamer clone (nucleic acid)
chain: rGrGrArGfCrGfCrAfCfUfCrArGfCfCrAfCfUrArAfCrGrGfUfUrGrAfUfCfUfCrArGrGrAfCfUrArArAfUrArGfUfCrArAfCrArArGrGrAfUrGfCrGfUfUfUfCrGrAfCfCfUfCfUfCfUrGfCfUrArGfC
- Screen- Rabbit/No Protein [7]: 1.89
- ≦200 nM aptamer gives >90% blocking in BIPA at 6 minutes [4]: yes
- Inhibition of full length hVWF binding in FACS assay, IC50 range [2]: no activity
- Kd [6, 15]: 90 nM
- Screen- Human/No Protein [8]: 1.88
